In patent publication US8507489B2, “Bicyclic triazoles as protein kinase modulators” (SGX Pharmaceuticals, Inc., priority 2006, dated 2013):

Tests used:
BRAF V599E = BRAF V599E (Homo sapiens, UniProt P15056, V600E); assay: SelectScreen Kinase Profiling BRAF V599E; assay type: biochemical
From the text: (§1) SelectScreen™ is a trademark screening assay protocol for kinases developed by Invitrogen Corporation, Madison, Wis. Details on assay conditions can be found on the company's website.

MST1R (RON) = MST1R (RON) (Homo sapiens, UniProt Q04912); assay: SelectScreen Kinase Profiling MST1R; assay type: biochemical
MST1R (RON), sequence (Q04912 25-1400): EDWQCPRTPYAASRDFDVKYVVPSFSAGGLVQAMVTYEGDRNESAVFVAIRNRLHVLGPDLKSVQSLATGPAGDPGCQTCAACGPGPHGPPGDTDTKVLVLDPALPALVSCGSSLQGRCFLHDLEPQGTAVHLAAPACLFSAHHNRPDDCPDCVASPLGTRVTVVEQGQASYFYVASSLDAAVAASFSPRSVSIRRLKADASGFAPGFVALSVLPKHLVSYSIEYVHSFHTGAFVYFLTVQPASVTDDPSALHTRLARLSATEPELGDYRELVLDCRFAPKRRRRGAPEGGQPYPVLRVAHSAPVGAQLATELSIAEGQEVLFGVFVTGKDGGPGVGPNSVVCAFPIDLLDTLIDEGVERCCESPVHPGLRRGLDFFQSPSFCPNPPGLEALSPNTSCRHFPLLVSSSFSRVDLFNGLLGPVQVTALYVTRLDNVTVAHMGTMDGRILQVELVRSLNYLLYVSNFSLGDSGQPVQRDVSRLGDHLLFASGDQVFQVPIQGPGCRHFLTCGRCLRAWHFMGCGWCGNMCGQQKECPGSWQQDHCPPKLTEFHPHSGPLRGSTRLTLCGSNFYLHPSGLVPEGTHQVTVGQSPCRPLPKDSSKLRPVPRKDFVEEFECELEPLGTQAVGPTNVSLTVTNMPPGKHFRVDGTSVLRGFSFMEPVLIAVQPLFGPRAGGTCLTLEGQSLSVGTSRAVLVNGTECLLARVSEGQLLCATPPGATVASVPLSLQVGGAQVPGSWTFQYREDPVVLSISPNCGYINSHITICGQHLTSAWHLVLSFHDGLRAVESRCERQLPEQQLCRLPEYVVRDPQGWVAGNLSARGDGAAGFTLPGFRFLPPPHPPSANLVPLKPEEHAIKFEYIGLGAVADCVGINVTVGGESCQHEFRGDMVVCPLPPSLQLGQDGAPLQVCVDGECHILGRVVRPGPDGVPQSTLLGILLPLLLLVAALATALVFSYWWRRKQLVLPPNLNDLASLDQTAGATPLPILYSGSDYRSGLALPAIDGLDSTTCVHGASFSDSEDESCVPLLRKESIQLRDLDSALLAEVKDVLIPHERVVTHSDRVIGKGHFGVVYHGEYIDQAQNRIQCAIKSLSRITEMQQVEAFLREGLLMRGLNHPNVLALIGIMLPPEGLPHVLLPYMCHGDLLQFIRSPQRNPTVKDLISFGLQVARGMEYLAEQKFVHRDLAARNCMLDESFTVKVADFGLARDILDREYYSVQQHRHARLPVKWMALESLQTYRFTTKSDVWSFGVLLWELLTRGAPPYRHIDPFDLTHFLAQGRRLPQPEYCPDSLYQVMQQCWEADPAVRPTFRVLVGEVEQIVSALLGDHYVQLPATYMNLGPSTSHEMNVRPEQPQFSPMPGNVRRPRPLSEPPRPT
From the text: as §1

PLK1 = PLK1 (Homo sapiens, UniProt P53350); assay: SelectScreen Kinase Profiling PLK1; assay type: biochemical
PLK1, sequence (P53350 whole entry): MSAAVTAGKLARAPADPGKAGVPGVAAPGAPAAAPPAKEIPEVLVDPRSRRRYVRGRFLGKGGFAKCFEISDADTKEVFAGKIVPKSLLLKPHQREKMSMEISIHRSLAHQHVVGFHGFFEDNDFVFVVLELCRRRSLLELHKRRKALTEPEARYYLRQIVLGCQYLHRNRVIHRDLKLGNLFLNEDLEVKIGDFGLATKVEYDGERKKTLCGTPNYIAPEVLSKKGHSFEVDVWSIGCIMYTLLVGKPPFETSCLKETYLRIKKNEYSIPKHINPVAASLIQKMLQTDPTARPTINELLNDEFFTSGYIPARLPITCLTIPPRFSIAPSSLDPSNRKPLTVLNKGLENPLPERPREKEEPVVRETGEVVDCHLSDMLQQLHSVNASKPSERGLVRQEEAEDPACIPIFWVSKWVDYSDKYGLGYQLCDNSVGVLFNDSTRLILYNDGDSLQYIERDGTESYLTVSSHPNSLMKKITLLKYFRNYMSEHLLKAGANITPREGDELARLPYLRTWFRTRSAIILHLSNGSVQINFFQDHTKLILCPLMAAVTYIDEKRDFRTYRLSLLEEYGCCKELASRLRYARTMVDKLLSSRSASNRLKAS
From the text: as §1

PDK1 = PDK1 (Homo sapiens, UniProt O15530); assay: SelectScreen Kinase Profiling PDK1; assay type: biochemical
PDK1, sequence (O15530 whole entry): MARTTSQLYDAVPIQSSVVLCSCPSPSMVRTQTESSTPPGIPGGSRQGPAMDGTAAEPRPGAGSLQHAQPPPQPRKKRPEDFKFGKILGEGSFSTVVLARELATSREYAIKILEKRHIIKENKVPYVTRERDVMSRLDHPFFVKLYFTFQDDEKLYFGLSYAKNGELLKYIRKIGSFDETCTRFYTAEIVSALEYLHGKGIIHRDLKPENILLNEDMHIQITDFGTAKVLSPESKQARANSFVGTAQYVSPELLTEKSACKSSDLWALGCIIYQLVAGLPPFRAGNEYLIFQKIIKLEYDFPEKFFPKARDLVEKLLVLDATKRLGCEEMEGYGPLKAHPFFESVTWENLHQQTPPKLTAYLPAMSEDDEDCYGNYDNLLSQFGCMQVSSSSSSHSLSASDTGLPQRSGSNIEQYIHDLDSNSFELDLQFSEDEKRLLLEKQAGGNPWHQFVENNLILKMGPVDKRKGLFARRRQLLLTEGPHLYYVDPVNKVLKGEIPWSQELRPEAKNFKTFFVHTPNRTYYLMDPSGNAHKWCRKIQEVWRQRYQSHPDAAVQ
From the text: as §1

AURKB (Aurora B) = AURKB (Aurora B) (Homo sapiens, UniProt Q96GD4); assay: SelectScreen Kinase Profiling AURKB; assay type: biochemical
AURKB (Aurora B), sequence (Q96GD4 whole entry): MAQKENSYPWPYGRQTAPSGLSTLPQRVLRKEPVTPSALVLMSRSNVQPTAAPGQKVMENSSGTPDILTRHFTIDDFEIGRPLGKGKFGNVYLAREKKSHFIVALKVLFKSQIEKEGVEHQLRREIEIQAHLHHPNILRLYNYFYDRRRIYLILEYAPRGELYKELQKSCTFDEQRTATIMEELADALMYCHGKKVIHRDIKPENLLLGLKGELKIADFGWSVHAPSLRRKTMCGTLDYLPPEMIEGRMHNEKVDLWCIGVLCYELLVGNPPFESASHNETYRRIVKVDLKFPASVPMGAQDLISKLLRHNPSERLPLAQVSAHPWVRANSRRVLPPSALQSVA
From the text: as §1

GTL16 cells = assay: 96-well XTT cell survival assay (GTL16 cells); assay type: cell-based; conditions: Homo sapiens, GTL 16, 72 hours
Protocol: GTL16 cells were maintained in DMEM Medium supplemented with 10% fetal bovine serum (FBS) 2 mM L-Glutamine and 100 units penicillin/100 μg streptomycin, at 37° C. in 5% CO2.
Compounds were tested in the following assays in duplicate.
96-well XTT assay (GTL16 cells): One day prior to assay the growth media was aspirated off and assay media was added to cells. On the day of the assay, the cells were grown in assay media containing various concentrations of compounds (duplicates) on a 96-well flat bottom plate for 72 hours at 37° C. in 5% CO2. The starting cell number was 5000 cells per well and volume was 120 μl. At the end of the 72-hour incubation, 40 μl of XTT labeling mixture (50:1 solution of sodium 3′-[1-(phenylaminocarbonyl)-3,4-tetrazolium]-bis (4-methoxy-6-nitro) benzene sulfonic acid hydrate and Electron-coupling reagent: PMS (N-methyl dibenzopyrazine methyl sulfate) were added to each well of the plate. After an additional 5 hours of incubation at 37° C., the absorbance reading at 450 nm with a background correction of 650 nm was measured with a spectrophotometer.

MAPK1 (ERK2) = MAPK1 (ERK2) (Homo sapiens, UniProt P28482); assay: SelectScreen Kinase Profiling MAPK1; assay type: biochemical
MAPK1 (ERK2), sequence (P28482 whole entry): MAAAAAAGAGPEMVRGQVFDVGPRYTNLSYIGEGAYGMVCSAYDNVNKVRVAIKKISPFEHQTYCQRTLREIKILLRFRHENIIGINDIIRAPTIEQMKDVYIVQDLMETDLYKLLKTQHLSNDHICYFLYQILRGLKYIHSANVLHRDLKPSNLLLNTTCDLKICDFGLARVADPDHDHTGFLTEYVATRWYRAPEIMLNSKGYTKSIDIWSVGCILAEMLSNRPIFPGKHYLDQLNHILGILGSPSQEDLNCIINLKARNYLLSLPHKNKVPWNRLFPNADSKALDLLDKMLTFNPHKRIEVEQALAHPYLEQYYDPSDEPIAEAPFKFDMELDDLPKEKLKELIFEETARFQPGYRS
From the text: as §1

JAK2 JH1 JH2 V617F = target: T1, JAK2 JH1 JH2 V617F (Homo sapiens, UniProt O60674, V617F); assay: SelectScreen Kinase Profiling JAK2 JH1 JH2 V617F; assay type: biochemical
T1 construct: JAK2 JH1 JH2 V617F
T1 sequence (O60674 532-1132 V617F limits assumed): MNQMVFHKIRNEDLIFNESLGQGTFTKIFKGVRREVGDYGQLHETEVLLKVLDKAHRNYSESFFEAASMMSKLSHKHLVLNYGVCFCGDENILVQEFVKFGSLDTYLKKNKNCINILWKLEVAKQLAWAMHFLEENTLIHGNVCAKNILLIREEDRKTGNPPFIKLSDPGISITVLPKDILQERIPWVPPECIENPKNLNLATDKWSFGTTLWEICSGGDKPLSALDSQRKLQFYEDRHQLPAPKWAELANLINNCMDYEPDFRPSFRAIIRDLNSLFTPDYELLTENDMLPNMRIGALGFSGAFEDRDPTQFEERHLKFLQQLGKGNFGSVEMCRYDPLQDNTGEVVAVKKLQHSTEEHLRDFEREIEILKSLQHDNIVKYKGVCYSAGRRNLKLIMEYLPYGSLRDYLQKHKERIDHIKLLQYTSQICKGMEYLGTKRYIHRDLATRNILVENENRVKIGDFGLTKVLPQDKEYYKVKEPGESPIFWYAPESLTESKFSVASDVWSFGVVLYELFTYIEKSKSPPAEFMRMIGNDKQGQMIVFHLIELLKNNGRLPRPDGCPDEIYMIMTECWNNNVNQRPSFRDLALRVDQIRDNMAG
From the text: as §1

MET (cMet) = MET (cMet) (Homo sapiens, UniProt P08581); assay: SelectScreen Kinase Profiling MET; assay type: biochemical
From the text: as §1

KDR (VEGFR2) = KDR (VEGFR2) (Homo sapiens, UniProt P35968); assay: SelectScreen Kinase Profiling KDR; assay type: biochemical
From the text: as §1

MET M1250T = MET M1250T (Homo sapiens, UniProt P08581, M1250T); assay: SelectScreen Kinase Profiling MET M1250T; assay type: biochemical
From the text: as §1

FRAP1 (mTOR) = FRAP1 (mTOR) (Homo sapiens, UniProt P42345); assay: SelectScreen Kinase Profiling FRAP1; assay type: biochemical
From the text: as §1

c-MET = c-MET (Homo sapiens, UniProt P08581); assay: MET luminescence-based enzyme assay (Kinase-Glo); assay type: biochemical
c-MET, sequence (P08581 1078-1345 limits assumed): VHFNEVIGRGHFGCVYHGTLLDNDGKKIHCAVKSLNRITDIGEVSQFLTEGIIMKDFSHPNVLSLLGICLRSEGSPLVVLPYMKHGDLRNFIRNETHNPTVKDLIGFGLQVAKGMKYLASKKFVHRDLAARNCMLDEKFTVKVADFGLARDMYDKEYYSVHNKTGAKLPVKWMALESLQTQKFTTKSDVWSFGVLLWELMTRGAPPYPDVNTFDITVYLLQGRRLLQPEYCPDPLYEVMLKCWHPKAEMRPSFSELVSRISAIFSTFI
Protocol: The subscript designates positive or negative controls. The Z′ score for a robust screening assay should be ≧0.50. The typical threshold=μ+−3*σ+. Any value that falls below the threshold was designated a “hit”.
MET Luminescence-Based Enzyme Assay
MET kinase (see below), Kinase-Glo™ (Promega Cat#V6712).
Negative controls contained 10 μM staurosporine.

BRAF V599E, sequence (P15056 416-766 V600E limits assumed): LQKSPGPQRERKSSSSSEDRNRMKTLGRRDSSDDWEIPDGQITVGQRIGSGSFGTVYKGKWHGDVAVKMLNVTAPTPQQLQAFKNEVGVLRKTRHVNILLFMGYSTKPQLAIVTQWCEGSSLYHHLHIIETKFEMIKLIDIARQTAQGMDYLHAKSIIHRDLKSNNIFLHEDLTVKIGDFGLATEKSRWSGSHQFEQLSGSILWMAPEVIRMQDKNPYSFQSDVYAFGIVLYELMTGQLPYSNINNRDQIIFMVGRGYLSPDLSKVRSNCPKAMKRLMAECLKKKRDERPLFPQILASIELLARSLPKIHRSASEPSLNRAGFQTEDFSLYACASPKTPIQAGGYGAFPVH

Row | inhibition at 1 µM (BRAF V599E) [%] | inhibition at 1 µM (MST1R (RON)) [%] | inhibition at 1 µM (PLK1) [%] | inhibition at 1 µM (PDK1) [%] | inhibition at 1 µM (AURKB (Aurora B)) [%] | inhibition at 1 µM (MAPK1 (ERK2)) [%] | inhibition at 1 µM (JAK2 JH1 JH2 V617F) [%] | inhibition at 1 µM (MET (cMet)) [%] | inhibition at 1 µM (KDR (VEGFR2)) [%] | inhibition at 1 µM (MET M1250T) [%] | inhibition at 1 µM (FRAP1 (mTOR)) [%] | IC50 (c-MET) [nM] | SMILES | IC50 (GTL16 cells) [nM]
1 | 36 | 9 | 0 | 7 | 7 | 9 | -11 |  |  |  |  |  | Cn1cc(-c2ccc3nnc(Sc4ccc5ncccc5c4)n3n2)cn1 [Compound 4, 6-[6-(1-Methyl-1H-pyrazol-4-yl)-[1,2,4]triazolo[4,3-b]pyridazin-3-ylsulfanyl]-quinoline] | ≤ 100
2 | 7 | 53 | 0 | 6 | 61 | 0 | 9 | 98 | 16 | 89 | 0 | < 100 | Cc1ccc2nnc(Sc3ccc4ncc(-c5cnn(C)c5)cc4c3)n2n1 [Compound 41, 3-(1-Methyl-1H-pyrazol-4-yl)-6-(6-methyl-[1,2,4]triazolo[4,3-b]pyridazin-3-ylsulfanyl)-quinoline] | ≤ 100
